Laboratory results published in publication PMC2844090 (Journal of medicinal chemistry, 2009).

Key:
[1] = molecular target: T1, human kynurenine aminotransferase I (hKAT I) (Homo sapiens, UniProt Q16773); assay: co-crystal structure at […] Å; assay type: binding
T1 sequence (Q16773 1-422): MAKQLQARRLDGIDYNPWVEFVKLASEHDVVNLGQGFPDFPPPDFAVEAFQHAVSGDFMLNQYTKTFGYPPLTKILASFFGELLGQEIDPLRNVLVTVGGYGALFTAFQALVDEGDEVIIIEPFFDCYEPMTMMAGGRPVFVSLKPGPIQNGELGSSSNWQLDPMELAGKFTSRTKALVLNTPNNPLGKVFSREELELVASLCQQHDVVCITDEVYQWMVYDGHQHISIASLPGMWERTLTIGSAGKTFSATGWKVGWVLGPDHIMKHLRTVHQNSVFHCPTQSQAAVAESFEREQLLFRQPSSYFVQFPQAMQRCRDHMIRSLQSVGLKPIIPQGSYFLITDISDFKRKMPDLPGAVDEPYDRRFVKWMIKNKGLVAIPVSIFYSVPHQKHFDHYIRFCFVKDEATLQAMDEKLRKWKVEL

[2] = molecular target: T1, human kynurenine aminotransferase I (hKAT I); assay: transamination assay, HPLC of KYNA; assay type: biochemical
[3] = molecular target: T1, human kynurenine aminotransferase I (hKAT I); assay: transamination assay, HPLC of KYNA; assay type: biochemical; remark: listed apart in the source

SMILES	transamination assay, HPLC of KYNA (0.08-10 mM); competing substrate [2]	further results
NC(CO)(CO)CO [Tris]	–	co-crystal structure at 1.50 Å (one of two subunits) [1]: Tris lies near the PLP cofactor and that the Tris amine does not form an external aldimine with PLP
O=C(O)C(=O)Cc1c[nH]c2ccccc12 [indole-3-pyruvic acid]	Figure 6B shows the inhibitions of tryptophan and indole-3-pyruvic acid	–
O=C(O)/C=C/c1c[nH]c2ccccc12 [trans-3-indoleacrylic acid]	–	transamination assay, HPLC of KYNA (0.08-10 mM) [3]: All six of the chemicals strongly inhibited hKAT I
N[C@@H](Cc1c[nH]c2ccccc12)C(=O)O [tryptophan]	Figure 6B shows the inhibitions of tryptophan and indole-3-pyruvic acid	–
